# From the NIST ThermoML archive (doi:10.1021/je050074w)
# Numbers after ± are expanded uncertainties.
# Experiment: an = mass per volume of the nth substance listed, in kg/m3
# Conditions: Wilhelmy plate method
smiles,measurement,setting,value
CCCCCCCCCCCCOS(=O)(=O)[O-].[Na+] [sodium dodecyl sulfate] + O,surface tension liquid-gas,"288.15 K, a1 = 0.00627",71.99 ± 1.8 mN/m
same,surface tension liquid-gas,"288.15 K, a1 = 0.0157",65.28 ± 1.6 mN/m
same,surface tension liquid-gas,"288.15 K, a1 = 0.0273",64.13 ± 1.6 mN/m
same,surface tension liquid-gas,"288.15 K, a1 = 0.0338",69.24 ± 1.7 mN/m
same,surface tension liquid-gas,"289.15 K, a1 = 0.00627",71.91 ± 1.8 mN/m
same,surface tension liquid-gas,"289.15 K, a1 = 0.0157",65.17 ± 1.6 mN/m
same,surface tension liquid-gas,"289.15 K, a1 = 0.0273",64.05 ± 1.6 mN/m
same,surface tension liquid-gas,"289.15 K, a1 = 0.0338",69.1 ± 1.7 mN/m
same,surface tension liquid-gas,"290.15 K, a1 = 0.00627",71.74 ± 1.8 mN/m
same,surface tension liquid-gas,"290.15 K, a1 = 0.0157",65 ± 1.6 mN/m
same,surface tension liquid-gas,"290.15 K, a1 = 0.0273",63.88 ± 1.6 mN/m
same,surface tension liquid-gas,"290.15 K, a1 = 0.0338",68.89 ± 1.7 mN/m
same,surface tension liquid-gas,"291.15 K, a1 = 0.00627",71.58 ± 1.8 mN/m
same,surface tension liquid-gas,"291.15 K, a1 = 0.0157",64.83 ± 1.6 mN/m
same,surface tension liquid-gas,"291.15 K, a1 = 0.0273",63.72 ± 1.6 mN/m
same,surface tension liquid-gas,"291.15 K, a1 = 0.0338",68.76 ± 1.7 mN/m
same,surface tension liquid-gas,"292.15 K, a1 = 0.00627",71.41 ± 1.8 mN/m
same,surface tension liquid-gas,"292.15 K, a1 = 0.0157",64.67 ± 1.6 mN/m
same,surface tension liquid-gas,"292.15 K, a1 = 0.0273",63.56 ± 1.6 mN/m
same,surface tension liquid-gas,"292.15 K, a1 = 0.0338",68.59 ± 1.7 mN/m
same,surface tension liquid-gas,"293.15 K, a1 = 0.00627",71.24 ± 1.8 mN/m
same,surface tension liquid-gas,"293.15 K, a1 = 0.0157",64.48 ± 1.6 mN/m
same,surface tension liquid-gas,"293.15 K, a1 = 0.0273",63.37 ± 1.6 mN/m
same,surface tension liquid-gas,"293.15 K, a1 = 0.0338",68.45 ± 1.7 mN/m
same,surface tension liquid-gas,"294.15 K, a1 = 0.00627",71.07 ± 1.8 mN/m
same,surface tension liquid-gas,"294.15 K, a1 = 0.0157",64.32 ± 1.6 mN/m
same,surface tension liquid-gas,"294.15 K, a1 = 0.0273",63.19 ± 1.6 mN/m
same,surface tension liquid-gas,"294.15 K, a1 = 0.0338",68.28 ± 1.7 mN/m
same,surface tension liquid-gas,"295.15 K, a1 = 0.00627",70.89 ± 1.8 mN/m
same,surface tension liquid-gas,"295.15 K, a1 = 0.0157",64.17 ± 1.6 mN/m
same,surface tension liquid-gas,"295.15 K, a1 = 0.0273",63.02 ± 1.6 mN/m
same,surface tension liquid-gas,"295.15 K, a1 = 0.0338",68.11 ± 1.7 mN/m
same,surface tension liquid-gas,"296.15 K, a1 = 0.00627",70.76 ± 1.8 mN/m
same,surface tension liquid-gas,"296.15 K, a1 = 0.0157",64.03 ± 1.6 mN/m
same,surface tension liquid-gas,"296.15 K, a1 = 0.0273",62.88 ± 1.6 mN/m
same,surface tension liquid-gas,"296.15 K, a1 = 0.0338",67.97 ± 1.7 mN/m
same,surface tension liquid-gas,"297.15 K, a1 = 0.00627",70.59 ± 1.8 mN/m
same,surface tension liquid-gas,"297.15 K, a1 = 0.0157",63.86 ± 1.6 mN/m
same,surface tension liquid-gas,"297.15 K, a1 = 0.0273",62.74 ± 1.6 mN/m
same,surface tension liquid-gas,"297.15 K, a1 = 0.0338",67.78 ± 1.7 mN/m
same,surface tension liquid-gas,"298.15 K, a1 = 0.00627",70.43 ± 1.8 mN/m
same,surface tension liquid-gas,"298.15 K, a1 = 0.0157",63.71 ± 1.6 mN/m
same,surface tension liquid-gas,"298.15 K, a1 = 0.0273",62.6 ± 1.6 mN/m
same,surface tension liquid-gas,"298.15 K, a1 = 0.0338",67.63 ± 1.7 mN/m
same,surface tension liquid-gas,"299.15 K, a1 = 0.00627",70.29 ± 1.8 mN/m
same,surface tension liquid-gas,"299.15 K, a1 = 0.0157",63.57 ± 1.6 mN/m
same,surface tension liquid-gas,"299.15 K, a1 = 0.0273",62.49 ± 1.6 mN/m
same,surface tension liquid-gas,"299.15 K, a1 = 0.0338",67.44 ± 1.7 mN/m
same,surface tension liquid-gas,"300.15 K, a1 = 0.00627",70.16 ± 1.8 mN/m
same,surface tension liquid-gas,"300.15 K, a1 = 0.0157",63.41 ± 1.6 mN/m
same,surface tension liquid-gas,"300.15 K, a1 = 0.0273",62.36 ± 1.6 mN/m
same,surface tension liquid-gas,"300.15 K, a1 = 0.0338",67.29 ± 1.7 mN/m
same,surface tension liquid-gas,"301.15 K, a1 = 0.00627",70.01 ± 1.8 mN/m
same,surface tension liquid-gas,"301.15 K, a1 = 0.0157",63.26 ± 1.6 mN/m
same,surface tension liquid-gas,"301.15 K, a1 = 0.0273",62.25 ± 1.6 mN/m
same,surface tension liquid-gas,"301.15 K, a1 = 0.0338",67.11 ± 1.7 mN/m
same,surface tension liquid-gas,"302.15 K, a1 = 0.00627",69.84 ± 1.8 mN/m
same,surface tension liquid-gas,"302.15 K, a1 = 0.0157",63.08 ± 1.6 mN/m
same,surface tension liquid-gas,"302.15 K, a1 = 0.0273",62.11 ± 1.6 mN/m
same,surface tension liquid-gas,"302.15 K, a1 = 0.0338",66.95 ± 1.7 mN/m
same,surface tension liquid-gas,"303.15 K, a1 = 0.00627",69.68 ± 1.7 mN/m
same,surface tension liquid-gas,"303.15 K, a1 = 0.0157",62.94 ± 1.6 mN/m
same,surface tension liquid-gas,"303.15 K, a1 = 0.0273",62.01 ± 1.6 mN/m
same,surface tension liquid-gas,"303.15 K, a1 = 0.0338",66.77 ± 1.7 mN/m
same,surface tension liquid-gas,"304.15 K, a1 = 0.00627",69.53 ± 1.7 mN/m
same,surface tension liquid-gas,"304.15 K, a1 = 0.0157",62.76 ± 1.6 mN/m
same,surface tension liquid-gas,"304.15 K, a1 = 0.0273",61.9 ± 1.6 mN/m
same,surface tension liquid-gas,"304.15 K, a1 = 0.0338",66.61 ± 1.7 mN/m
same,surface tension liquid-gas,"305.15 K, a1 = 0.00627",69.39 ± 1.7 mN/m
same,surface tension liquid-gas,"305.15 K, a1 = 0.0157",62.66 ± 1.6 mN/m
same,surface tension liquid-gas,"305.15 K, a1 = 0.0273",61.83 ± 1.6 mN/m
same,surface tension liquid-gas,"305.15 K, a1 = 0.0338",66.42 ± 1.7 mN/m
same,surface tension liquid-gas,"306.15 K, a1 = 0.00627",69.23 ± 1.7 mN/m
same,surface tension liquid-gas,"306.15 K, a1 = 0.0157",62.52 ± 1.6 mN/m
same,surface tension liquid-gas,"306.15 K, a1 = 0.0273",61.72 ± 1.5 mN/m
same,surface tension liquid-gas,"306.15 K, a1 = 0.0338",66.25 ± 1.7 mN/m
same,surface tension liquid-gas,"307.15 K, a1 = 0.00627",69.08 ± 1.7 mN/m
same,surface tension liquid-gas,"307.15 K, a1 = 0.0157",62.32 ± 1.6 mN/m
same,surface tension liquid-gas,"307.15 K, a1 = 0.0273",61.62 ± 1.5 mN/m
same,surface tension liquid-gas,"307.15 K, a1 = 0.0338",66.04 ± 1.6 mN/m
same,surface tension liquid-gas,"308.15 K, a1 = 0.00627",68.94 ± 1.7 mN/m
same,surface tension liquid-gas,"308.15 K, a1 = 0.0157",62.16 ± 1.6 mN/m
same,surface tension liquid-gas,"308.15 K, a1 = 0.0273",61.54 ± 1.5 mN/m
